{"source": "PubChem BioAssay (NCI)", "assay_in_all_cases": "inhibition of tumour cell growth, NCI panel, 48 h", "key": {"[1]": {"test_system": "NCI-H226 lung"}, "[2]": {"test_system": "NCI-H23 lung"}, "[3]": {"test_system": "NCI-H460 lung"}, "[4]": {"test_system": "NCI-H522 lung"}, "[5]": {"test_system": "OVCAR-3 ovarian"}, "[6]": {"test_system": "OVCAR-4 ovarian"}, "[7]": {"test_system": "OVCAR-5 ovarian"}, "[8]": {"test_system": "OVCAR-8 ovarian"}, "[9]": {"test_system": "PC-3 prostate"}, "[10]": {"test_system": "RPMI-8226 leukemia"}, "[11]": {"test_system": "RXF 393 renal"}, "[12]": {"test_system": "SF-268 CNS"}, "[13]": {"test_system": "SF-295 CNS"}, "[14]": {"test_system": "SF-539 CNS"}, "[15]": {"test_system": "SK-MEL-2 melanoma"}, "[16]": {"test_system": "SK-MEL-28 melanoma"}, "[17]": {"test_system": "SK-MEL-5 melanoma"}, "[18]": {"test_system": "SK-OV-3 ovarian"}, "[19]": {"test_system": "SN12C renal"}, "[20]": {"test_system": "SNB-19 CNS"}, "[21]": {"test_system": "SNB-75 CNS"}, "[22]": {"test_system": "SR leukemia"}, "[23]": {"test_system": "SW-620 colon"}, "[24]": {"test_system": "TK-10 renal"}, "[25]": {"test_system": "U251 CNS"}, "[26]": {"test_system": "UACC-257 melanoma"}, "[27]": {"test_system": "UACC-62 melanoma"}, "[28]": {"test_system": "UO-31 renal"}}, "note": "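These data come from cells grown in 96-well plates and exposed to compound for 48 hours at five concentrations. Abbreviation: GI50, concentration required for 50% inhibition of growth. TGI: total growth inhibition.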"}
{"smiles": "CSc1ccccc1NC(=O)c1ccc2nnn(/C(C#N)=C/c3ccccn3)c2c1", "values": [{"measurement": "GI50", "setting": "[1]", "result": 13.9, "unit": "µM"}, {"measurement": "TGI", "setting": "[1]", "result": 32.9, "unit": "µM"}, {"measurement": "GI50", "setting": "[2]", "result": 1.8, "unit": "µM"}, {"measurement": "TGI", "setting": "[2]", "result": 3.52, "unit": "µM"}, {"measurement": "GI50", "setting": "[3]", "result": 3.24, "unit": "µM"}, {"measurement": "TGI", "setting": "[3]", "result": 11.1, "unit": "µM"}, {"measurement": "GI50", "setting": "[4]", "result": 1.56, "unit": "µM"}, {"measurement": "TGI", "setting": "[4]", "result": 3.22, "unit": "µM"}, {"measurement": "GI50", "setting": "[5]", "result": 1.77, "unit": "µM"}, {"measurement": "TGI", "setting": "[5]", "result": 3.48, "unit": "µM"}, {"measurement": "GI50", "setting": "[6]", "result": 4.22, "unit": "µM"}, {"measurement": "TGI", "setting": "[6]", "result": 17.3, "unit": "µM"}, {"measurement": "GI50", "setting": "[7]", "result": 1.84, "unit": "µM"}, {"measurement": "TGI", "setting": "[7]", "result": 3.91, "unit": "µM"}, {"measurement": "GI50", "setting": "[8]", "result": 3.34, "unit": "µM"}, {"measurement": "TGI", "setting": "[8]", "result": 12.7, "unit": "µM"}, {"measurement": "GI50", "setting": "[9]", "result": 4.09, "unit": "µM"}, {"measurement": "TGI", "setting": "[9]", "result": 16.6, "unit": "µM"}, {"measurement": "GI50", "setting": "[10]", "result": 3.14, "unit": "µM"}, {"measurement": "TGI", "setting": "[10]", "result": "> 100", "unit": "µM"}, {"measurement": "GI50", "setting": "[11]", "result": 1.5, "unit": "µM"}, {"measurement": "TGI", "setting": "[11]", "result": 2.86, "unit": "µM"}, {"measurement": "GI50", "setting": "[12]", "result": 11.5, "unit": "µM"}, {"measurement": "TGI", "setting": "[12]", "result": 28.7, "unit": "µM"}, {"measurement": "GI50", "setting": "[13]", "result": 15.5, "unit": "µM"}, {"measurement": "TGI", "setting": "[13]", "result": 28.8, "unit": "µM"}, {"measurement": "GI50", "setting": "[14]", "result": 1.84, "unit": "µM"}, {"measurement": "TGI", "setting": "[14]", "result": 3.54, "unit": "µM"}, {"measurement": "GI50", "setting": "[15]", "result": 2.25, "unit": "µM"}, {"measurement": "TGI", "setting": "[15]", "result": 5.22, "unit": "µM"}, {"measurement": "GI50", "setting": "[16]", "result": 1.86, "unit": "µM"}, {"measurement": "TGI", "setting": "[16]", "result": 3.75, "unit": "µM"}, {"measurement": "GI50", "setting": "[17]", "result": 3.37, "unit": "µM"}, {"measurement": "TGI", "setting": "[17]", "result": 12.1, "unit": "µM"}, {"measurement": "GI50", "setting": "[18]", "result": 18.6, "unit": "µM"}, {"measurement": "TGI", "setting": "[18]", "result": 33.8, "unit": "µM"}, {"measurement": "GI50", "setting": "[19]", "result": 3.87, "unit": "µM"}, {"measurement": "TGI", "setting": "[19]", "result": 14.1, "unit": "µM"}, {"measurement": "GI50", "setting": "[20]", "result": 13.4, "unit": "µM"}, {"measurement": "TGI", "setting": "[20]", "result": 26.2, "unit": "µM"}, {"measurement": "GI50", "setting": "[21]", "result": 10.1, "unit": "µM"}, {"measurement": "TGI", "setting": "[21]", "result": 21.7, "unit": "µM"}, {"measurement": "GI50", "setting": "[22]", "result": 2.51, "unit": "µM"}, {"measurement": "TGI", "setting": "[22]", "result": 9.46, "unit": "µM"}, {"measurement": "GI50", "setting": "[23]", "result": 1.86, "unit": "µM"}, {"measurement": "TGI", "setting": "[23]", "result": 3.54, "unit": "µM"}, {"measurement": "GI50", "setting": "[24]", "result": 1.75, "unit": "µM"}, {"measurement": "TGI", "setting": "[24]", "result": 3.25, "unit": "µM"}, {"measurement": "GI50", "setting": "[25]", "result": 3.61, "unit": "µM"}, {"measurement": "TGI", "setting": "[25]", "result": 12.9, "unit": "µM"}, {"measurement": "GI50", "setting": "[26]", "result": 2.02, "unit": "µM"}, {"measurement": "TGI", "setting": "[26]", "result": 5.3, "unit": "µM"}, {"measurement": "GI50", "setting": "[27]", "result": 1.83, "unit": "µM"}, {"measurement": "TGI", "setting": "[27]", "result": 3.84, "unit": "µM"}, {"measurement": "GI50", "setting": "[28]", "result": 1.55, "unit": "µM"}, {"measurement": "TGI", "setting": "[28]", "result": 2.89, "unit": "µM"}]}
